In PubChem BioAssay AID248 (DTP/NCI, 2004):
Values joined by “and” are separate entries in the source; they are usually repeats but may differ in a detail not shown here. Equal entries are not always repeated. Inconclusive results and toxic doses are left out. Rule as the data show it: active = T/C of 150% or more; inactive = T/C below 125%.

System: L1210 leukemia ip in BDF1 mice, survival T/C
Test: NCI In Vivo Anticancer Drug Screen. Data for tumor model L1210 Leukemia (intraperitoneal) in B6D2F1 (BDF1) mice
Conditions: endpoint: mean survival time, higher = longer survival
Outline: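 Mice bearing the transplanted tumor received compound or vehicle. Survival of the treated group was divided by that of the vehicle-treated control group to give the ratio.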

[1] = dose: 100.0 mg/kg/injection, schedule: Q01DX009 (ip), vehicle: saline sonified
[2] = dose: 100.0 mg/kg/injection, schedule: Q04DX003 (ip), vehicle: Klucel (hydroxypropylcellulose) (HPC)
[3] = dose: 200.0 mg/kg/injection, schedule: Q01DX009 (ip), vehicle: saline sonified
[4] = dose: 200.0 mg/kg/injection, schedule: Q04DX003 (ip), vehicle: Klucel (hydroxypropylcellulose) (HPC)
[5] = dose: 400.0 mg/kg/injection, schedule: Q01DX009 (ip), vehicle: saline sonified
[6] = dose: 400.0 mg/kg/injection, schedule: Q04DX003 (ip), vehicle: Klucel (hydroxypropylcellulose) (HPC)
[7] = dose: 100.0 mg/kg/injection, schedule: Q04DX003 (ip), vehicle: saline
[8] = dose: 200.0 mg/kg/injection, schedule: Q04DX003 (ip), vehicle: saline
[9] = dose: 400.0 mg/kg/injection, schedule: Q04DX003 (ip), vehicle: saline
[10] = dose: 100.0 mg/kg/injection, schedule: Q01DX001 (ip), vehicle: saline
[11] = dose: 150.0 mg/kg/injection, schedule: Q01DX009 (ip), vehicle: saline
[12] = dose: 100.0 mg/kg/injection, schedule: Q04DX003 (ip), vehicle: saline with Tween-80
[13] = dose: 200.0 mg/kg/injection, schedule: Q04DX003 (ip), vehicle: saline with Tween-80
[14] = dose: 400.0 mg/kg/injection, schedule: Q04DX003 (ip), vehicle: saline with Tween-80
[15] = dose: 100.0 mg/kg/injection, schedule: Q01DX009 (ip), vehicle: saline with Tween-80
[16] = dose: 100.0 mg/kg/injection, schedule: Q04DX002 (ip), vehicle: saline with Tween-80
[17] = dose: 200.0 mg/kg/injection, schedule: Q01DX009 (ip), vehicle: saline with Tween-80
[18] = dose: 400.0 mg/kg/injection, schedule: Q01DX009 (ip), vehicle: saline with Tween-80

Measured: T/C

O=C(O)Cc1cc([N+](=O)[O-])c(O)c([N+](=O)[O-])c1
inactive: [1] 101 % of control | [2] 95 % of control | [3] 102 % of control | [4] 88 % of control | [5] 102 % of control | [6] 93 % of control

C#CC(C)(C)OCC(CCl)OC(N)=O (stereo not given)
inactive: dose: 50.0 mg/kg/injection, schedule: Q04DX003 (ip), vehicle: saline 98 % of control | [7] 96 % of control | [8] 101 % of control | [9] 104 % of control

O=C(Nc1ncccn1)Nc1ccccc1C(F)(F)F
inactive: dose: 100.0 mg/kg/injection, schedule: Q01DX009 (ip), vehicle: gum acacia 88 % of control | dose: 200.0 mg/kg/injection, schedule: Q01DX009 (ip), vehicle: gum acacia 86 % of control | dose: 400.0 mg/kg/injection, schedule: Q01DX009 (ip), vehicle: gum acacia 88 % of control

COc1cc2c(cc1O)C(=O)CCCC2
inactive: [1] 94 % of control | [2] 94 % of control | [3] 103 % of control | [4] 92 % of control | [5] 90 % of control | [6] 100 % of control

O=C(Nc1ccc([N+](=O)[O-])cc1Cl)c1cc(Cl)ccc1O
inactive: dose: 50.0 mg/kg/injection, schedule: Q01DX009 (ip), vehicle: Klucel (hydroxypropylcellulose) (HPC) 101 % of control | dose: 100.0 mg/kg/injection, schedule: Q01DX009 (ip), vehicle: Klucel (hydroxypropylcellulose) (HPC) 104 % of control | dose: 100.0 mg/kg/injection, schedule: Q04DX002 (ip), vehicle: Klucel (hydroxypropylcellulose) (HPC) 91 % of control | dose: 200.0 mg/kg/injection, schedule: Q01DX009 (ip), vehicle: Klucel (hydroxypropylcellulose) (HPC) 101 % of control | dose: 200.0 mg/kg/injection, schedule: Q04DX002 (ip), vehicle: Klucel (hydroxypropylcellulose) (HPC) 94 % of control

O=S(=O)(CCl)OCCCCOS(=O)(=O)CCl
inactive: dose: 31.5 mg/kg/injection, schedule: Q01DX009 (ip), vehicle: saline 108 % of control and 109 % of control | dose: 31.5 mg/kg/injection, schedule: Q01DX015 (ip), vehicle: saline 112 % of control | dose: 50.0 mg/kg/injection, schedule: Q01DX001 (ip), vehicle: saline 100 % of control | dose: 54.0 mg/kg/injection, schedule: Q01DX009 (ip), vehicle: saline 120 % of control and 124 % of control | dose: 90.0 mg/kg/injection, schedule: Q01DX009 (ip), vehicle: saline 124 % of control | dose: 90.0 mg/kg/injection, schedule: Q01DX015 (ip), vehicle: saline 124 % of control | [10] 111 % of control | dose: 100.0 mg/kg/injection, schedule: Q01DX015 (ip), vehicle: saline 108 % of control | dose: 133.0 mg/kg/injection, schedule: Q01DX001 (ip), vehicle: saline 104 % of control and 107 % of control and 121 % of control | [11] 104 % of control | dose: 200.0 mg/kg/injection, schedule: Q01DX015 (ip), vehicle: saline 97 % of control | dose: 300.0 mg/kg/injection, schedule: Q01DX001 (ip), vehicle: saline 104 % of control and 121 % of control

CC(=O)OC1CCP(C)(=O)C1 (stereo not given)
inactive: [7] 98 % of control | [8] 96 % of control | [9] 93 % of control

O=C(O)c1cc(C(Cl)(Cl)Cl)ccc1C(Cl)(Cl)Cl
inactive: dose: 50.0 mg/kg/injection, schedule: Q01DX009 (ip), vehicle: saline sonified 95 % of control | dose: 50.0 mg/kg/injection, schedule: Q04DX003 (ip), vehicle: Klucel (hydroxypropylcellulose) (HPC) 97 % of control | [1] 101 % of control | [2] 96 % of control | [3] 98 % of control | [4] 103 % of control

CC(C)(c1ccc(O)cc1)c1ccc(O)cc1
inactive: [12] 96 % of control | [13] 87 % of control | [14] 91 % of control

CSc1ccc(NC(=O)Oc2ccc(C(=O)OCc3ccccc3)cc2)cc1
inactive: dose: 100.0 mg/kg/injection, schedule: Q01DX001 (ip), vehicle: saline with Tween-80 100 % of control and 88 % of control | [15] 99 % of control and 87 % of control | [16] 97 % of control and 101 % of control | [12] 102 % of control | dose: 200.0 mg/kg/injection, schedule: Q01DX001 (ip), vehicle: saline with Tween-80 97 % of control | [17] 108 % of control and 89 % of control | dose: 200.0 mg/kg/injection, schedule: Q04DX002 (ip), vehicle: saline with Tween-80 97 % of control and 87 % of control | [13] 103 % of control | dose: 400.0 mg/kg/injection, schedule: Q01DX001 (ip), vehicle: saline with Tween-80 100 % of control | [18] 99 % of control and 92 % of control | dose: 400.0 mg/kg/injection, schedule: Q04DX002 (ip), vehicle: saline with Tween-80 95 % of control and 97 % of control | [14] 103 % of control

O=C(NN=c1c2ccccc2sc2ccccc12)c1cccc2ccccc12
inactive: [10] 103 % of control | dose: 200.0 mg/kg/injection, schedule: Q01DX001 (ip), vehicle: saline 105 % of control | dose: 400.0 mg/kg/injection, schedule: Q01DX001 (ip), vehicle: saline 97 % of control

CC1(C)c2ccccc2C(C)(O)c2ccccc21
inactive: [15] 96 % of control | dose: 100.0 mg/kg/injection, schedule: Q04DX003 (ip), vehicle: other 104 % of control | [17] 93 % of control | dose: 200.0 mg/kg/injection, schedule: Q04DX003 (ip), vehicle: other 94 % of control | [18] 93 % of control | dose: 400.0 mg/kg/injection, schedule: Q04DX003 (ip), vehicle: other 107 % of control

CC(=O)Nc1ccc2c(c1)C(=O)c1ccccc1-2
inactive: [7] 96 % of control | [8] 100 % of control | [9] 94 % of control

CC(C)N(CCNCC(Cc1ccccc1)c1ccccc1)C(C)C (stereo not given)
inactive: dose: 25.0 mg/kg/injection, schedule: Q04DX002 (ip), vehicle: saline with Tween-80 99 % of control | dose: 50.0 mg/kg/injection, schedule: Q04DX002 (ip), vehicle: saline with Tween-80 96 % of control | [16] 102 % of control

O=C1CNC(=O)CN1
inactive: dose: 75.0 mg/kg/injection, schedule: Q01DX009 (ip), vehicle: saline 94 % of control | [7] 103 % of control | [11] 92 % of control | [8] 106 % of control | dose: 300.0 mg/kg/injection, schedule: Q01DX009 (ip), vehicle: saline 94 % of control | [9] 100 % of control

O=C(NCc1cnccn1)c1ccco1
inactive: dose: 50.0 mg/kg/injection, schedule: Q01DX005 (ip), vehicle: saline 109 % of control | dose: 100.0 mg/kg/injection, schedule: Q01DX005 (ip), vehicle: saline 111 % of control | dose: 200.0 mg/kg/injection, schedule: Q01DX005 (ip), vehicle: saline 104 % of control

Nc1ccc2ccccc2c1S(=O)(=O)O
inactive: [12] 98 % of control | [13] 95 % of control | [14] 98 % of control

CCCCCCCCCCCC[N+](C)(C)Cc1cc(=O)c(O)co1
inactive: dose: 12.5 mg/kg/injection, schedule: Q04DX002 (ip), vehicle: saline 94 % of control | dose: 25.0 mg/kg/injection, schedule: Q04DX002 (ip), vehicle: saline 105 % of control | dose: 50.0 mg/kg/injection, schedule: Q04DX002 (ip), vehicle: saline 115 % of control
